Test system: A2780 cells
Test: In-vitro cell proliferation assay (SRB, 72 hours)
Type: cell-based
Conditions: Homo sapiens, A2780, 72 h, A2780 cells, 72 hours, SRB; read-out: Cell Proliferation (IC50)

Structure (SMILES) | IC50
Cc1cc(C)n(CCC(=O)N2CCC3(CC2)CC3CNC(=O)c2cc3ccncc3o2)n1 (centres unmarked) [Example 63, N-[[6-[3-(3,5-dimethylpyrazol-1-yl)propanoyl]-6-azaspiro[2.5]octan-2-yl]methyl]furo[2,3-c]pyridine-2-carboxamide] | 1390 nM
CC(C)(C)c1cc(C(=O)N2CCC3(CC2)CC3CNC(=O)c2cc3ccncc3o2)[nH]n1 (centres unmarked) [Example 322, N-[[6-(3-tert-butyl-1H-pyrazole-5-carbonyl)-6-azaspiro[2.5]octan-2-yl]methyl]furo[2,3-c]pyridine-2-carboxamide] | 15.1 nM
CC(=O)Nc1ccc(C(=O)N2CCC3(CC2)CC3CNC(=O)c2cc3ccncc3o2)cc1 (centres unmarked) [Example 72, N-[[6-(4-acetamidobenzoyl)-6-azaspiro[2.5]octan-2-yl]methyl]furo[2,3-c]pyridine-2-carboxamide] | 48.1 nM
O=C(NCC1CC12CCN(C(=O)c1ccccc1Cn1cncn1)CC2)c1cc2ccncc2o1 (centres unmarked) [Example 250, N-[[6-[2-(1,2,4-triazol-1-ylmethyl)benzoyl]-6-azaspiro[2.5]octan-2-yl]methyl]furo[2,3-c]pyridine-2-carboxamide] | 2000 nM
O=C(NCC1CC12CCN(C(=O)c1c[nH]cn1)CC2)c1cc2ccncc2o1 (centres unmarked) [Example 101, N-[[6-(1H-imidazole-4-carbonyl)-6-azaspiro[2.5]octan-2-yl]methyl]furo[2,3-c]pyridine-2-carboxamide] | 2000 nM
O=C(NCC1CC12CCN(C(=O)c1ccc(-c3ncn[nH]3)cc1)CC2)c1cc2ccncc2o1 (centres unmarked) [Example 254, N-[[6-(4-(1H-1,2,4-triazol-5-yl)benzoyl]-6-azaspiro[2.5]octan-2-yl]methyl]furo[2,3-c]pyridine-2-carboxamide] | 13 nM
CN(C)C(=O)CCC(=O)N1CCC2(CC1)CC2CNC(=O)c1cc2ccncc2o1 (centres unmarked) [Example 55, N-[[6-[4-(dimethylamino)-4-oxo-butanoyl]-6-azaspiro[2.5]octan-2-yl]methyl]furo[2,3-c]pyridine-2-carboxamide] | 2000 nM
O=C(NCC1CC12CCN(C(=O)c1ccc(-n3cncn3)cc1)CC2)c1cc2ccncc2o1 (centres unmarked) [Example 179, N-[[6-[4-(1,2,4-triazol-1-yl)benzoyl]-6-azaspiro[2.5]octan-2-yl]methyl]furo[2,3-c]pyridine-2-carboxamide] | 25.4 nM
O=C(NCC1CC12CCN(C(=O)CN1CCOCC1)CC2)c1cc2ccncc2o1 (centres unmarked) [Example 51, N-[[6-(2-morpholinoacetyl)-6-azaspiro[2.5]octan-2-yl]methyl]furo[2,3-c]pyridine-2-carboxamide] | 367 nM
CN1CCN(CCC(=O)N2CCC3(CC2)CC3CNC(=O)c2cc3ccncc3o2)CC1 (centres unmarked) [Example 89, N-[[6-[3-(4-methylpiperazin-1-yl)propanoyl]-6-azaspiro[2.5]octan-2-yl]methyl]furo[2,3-c]pyridine-2-carboxamide] | 116 nM
O=C(NCC1CC12CCN(C(=O)c1ccc3nccnc3c1)CC2)c1cc2ccncc2o1 (centres unmarked) [Example 261, N-[[6-(quinoxaline-6-carbonyl)-6-azaspiro[2.5]octan-2-yl]methyl]furo[2,3-c]pyridine-2-carboxamide] | 15.8 nM
O=C(NCC1CC12CCN(C(=O)NCc1ccccc1)CC2)c1cc2ccncc2o1 (centres unmarked) [Example 160] | 2000 nM
CC1(O)CC(CC(=O)N2CCC3(CC2)CC3CNC(=O)c2cc3cnccc3[nH]2)C1 (centres unmarked) [Example 400, N-[[6-[2-(3-hydroxy-3-methyl-cyclobutyl)acetyl]-6-azaspiro[2.5]octan-2-yl]methyl]-1H-pyrrolo[3,2-c]pyridine-2-carboxamide] | 222 nM
NC(=O)N1CCCC(C(=O)N2CCC3(CC2)CC3CNC(=O)c2cc3ccncc3o2)C1 (centres unmarked) [Example 79, N-[[6-(1-carbamoylpiperidine-3-carbonyl)-6-azaspiro[2.5]octan-2-yl]methyl]furo[2,3-c]pyridine-2-carboxamide] | 2000 nM
CCCNC(=O)N1CCC2(CC1)CC2CNC(=O)c1cc2ccncc2o1 (centres unmarked) [Example 185, N-[[6-(propylcarbamoyl)-6-azaspiro[2.5]octan-2-yl]methyl]furo[2,3-c]pyridine-2-carboxamide] | 2000 nM
O=C(NCC1CC12CCN(C(=O)c1cnc3[nH]cnc3c1)CC2)c1cc2ccncc2o1 (centres unmarked) [Example 340, N-[[6-(3H-imidazo[4,5-b]pyridine-6-carbonyl)-6-azaspiro[2.5]octan-2-yl]methyl]furo[2,3-c]pyridine-2-carboxamide] | 429 nM

More lines, now with the values ahead:

IC50 | Structure (SMILES)
2000 nM | O=C(NCC1CC12CCN(C(=O)c1ccno1)CC2)c1cc2ccncc2o1 (centres unmarked) [Example 272, N-[[6-(isoxazole-5-carbonyl)-6-azaspiro[2.5]octan-2-yl]methyl]furo[2,3-c]pyridine-2-carboxamide]
7.55 nM | O=C(NCC1CC12CCN(C(=O)c1cc(C3CC3)n[nH]1)CC2)N1Cc2ccncc2C1 (centres unmarked) [Example 353, N-[[6-(3-cyclopropyl-1H-pyrazole-5-carbonyl)-6-azaspiro[2.5]octan-2-yl]methyl]-1,3-dihydropyrrolo[3,4-c]pyridine-2-carboxamide]
2000 nM | Cc1cnc(C(=O)N2CCC3(CC2)CC3CNC(=O)c2cc3ccncc3o2)cn1 (centres unmarked) [Example 122, N-[[6-(5-methylpyrazine-2-carbonyl)-6-azaspiro[2.5]octan-2-yl]methyl]furo[2,3-c]pyridine-2-carboxamide]
92.8 nM | Cc1ccncc1C(=O)N1CCC2(CC1)CC2CNC(=O)c1cc2ccncc2o1 (centres unmarked) [Example 120, N-[[6-(4-methylpyridine-3-carbonyl)-6-azaspiro[2.5]octan-2-yl]methyl]furo[2,3-c]pyridine-2-carboxamide]
159 nM | Cc1c(C(=O)N2CCC3(CC2)CC3CNC(=O)c2cc3ccncc3o2)cnn1C (centres unmarked) [Example 330, N-[[6-(1,5-dmiethylpyrazole-4-carbonyl)-6-azaspiro[2.5]octan-2-yl]methyl]furo[2,3-c]pyridine-2-carboxamide]
1040 nM | N#CCC(=O)N1CCC2(CC1)CC2CNC(=O)N1Cc2ccncc2C1 (centres unmarked) [Example 191, N-[[6-(2-cyanoacetyl)-6-azaspiro[2.5]octan-2-yl]methyl]-1,3-dihydropyrrolo[3,4-c]pyridine-2-carboxamide]
436 nM | Cc1nc(C)c(C(=O)N2CCC3(CC2)CC3CNC(=O)c2cc3ccncc3o2)o1 (single isomer, unassigned) [Example 384, N-[[6-(2,4-dimethyloxazole-5-carbonyl)-6-azaspiro[2.5]octan-2-yl]methyl]furo[2,3-c]pyridine-2-carboxamide (single isomer)]
103 nM | Cc1cnn(C(C)(C)C)c1C(=O)N1CCC2(CC1)CC2CNC(=O)c1cc2ccncc2o1 (centres unmarked) [Example 298, N-[[6-(2-tert-butyl-4-methyl-pyrazole-3-carbonyl)-6-azaspiro[2.5]octan-2-yl]methyl]furo[2,3-c]pyridine-2-carboxamide]
83.4 nM | O=C(NCC1CC12CCN(C(=O)c1cnoc1C1CC1)CC2)c1cc2ccncc2o1 (centres unmarked) [Example 328, N-[[6-(5-cyclopropylisoxazole-4-carbonyl)-6-azaspiro[2.5]octan-2-yl]methyl]furo[2,3-c]pyridine-2-carboxamide]
278 nM | CCn1nccc1C(=O)N1CCC2(CC1)CC2CNC(=O)c1cc2ccncc2o1 (centres unmarked) [Example 297, N-[[6-(2-ethylpyrazole-3-carbonyl)-6-azaspiro[2.5]octan-2-yl]methyl]furo[2,3-c]pyridine-2-carboxamide]
2000 nM | O=C(NCC1CC12CCN(C(=O)c1ccc(C(F)(F)F)nc1)CC2)c1cc2ccncc2o1 (centres unmarked) [Example 257, N-[[6-[6-(trifluoromethyl]pyndine-3-carbonyl]-6-azaspiro[2.5]octan-2-yl]methyl]furo[2,3-c]pyridine-2-carboxamide]
1.11 nM | CC1(OC(=O)N2CCC3(CC2)CC3CNC(=O)N2Cc3ccncc3C2)CCOC1 (centres unmarked) [Example 375, (3-methyltetrahydrofuran-3-yl) 2-[(1,3-dihydropyrrolo[3,4-c]pyridine-2-carbonylamino)methyl]-6-azaspiro[2.5]octane-6-carboxylate]
1.26 nM | Cc1nc(C(F)(F)F)c(C(=O)N2CCC3(CC2)CC3CNC(=O)N2Cc3ccncc3C2)s1 (centres unmarked) [Example 388, N-[[6-[2-methyl-4-(trifluoromethyl]thiazole-5-carbonyl]-6-azaspiro[2.5]octan-2-yl]methyl]-1,3-dihydropyrrolo[3,4-c]pyridine-2-carboxamide]
56.1 nM | CC1(NC(=O)N2CCC3(CC2)CC3CNC(=O)N2Cc3ccncc3C2)COC1 (centres unmarked) [Example 361, N-[[6-[(3-methyloxetan-3-yl)carbamoyl]-6-azaspiro[2.5]octan-2-yl]methyl]-1,3-dihydropyrrolo[3,4-c]pyridine-2-carboxamide]
2000 nM | O=C(NCC1CC12CCN(C(=O)c1ncc[nH]1)CC2)c1cc2ccncc2o1 (centres unmarked) [Example 338, N-[[6-(1H-imidazole-2-carbonyl)-6-azaspiro[2.5]octan-2-yl]methyl]furo[2,3-c]pyridine-2-carboxamide]
2.9 nM | CC1(CC(=O)N2CCC3(CC2)CC3CNC(=O)N2Cc3ccncc3C2)CCN(CC(F)(F)F)CC1 (centres unmarked) [Example 403, N-[[6-[2-[4-Methyl-1-(2,2,2-trifluoroethyl)-4-piperidyl]acetyl]-6-azaspiro[2.5]octan-2-yl]methyl]-1,3-dihydropyrrolo[3,4-c]pyridine-2-carboxamide]
3.67 nM | O=C(CC1CCCCC1)N1CCC2(CC1)CC2CNC(=O)N1Cc2ccncc2C1 (centres unmarked) [Example 196, N-[[6-(2-cyclohexylacetyl)-6-azaspiro[2.5]octan-2-yl]methyl]-1,3-dihydropyrrolo[3,4-c]pyridine-2-carboxamide]
755 nM | Cn1cnc(C(=O)N2CCC3(CC2)CC3CNC(=O)c2cc3ccncc3o2)c1 (centres unmarked) [Example 105, N-[[6-(1-methylimidazole-4-carbonyl)-6-azaspiro[2.5]octan-2-yl]methyl]furo[2,3-c]pyridine-2-carboxamide]

Same assay, conditions: Homo sapiens, A2780, 72 h, read-out: Cell Proliferation (IC50)

IC50 | Structure (SMILES)
2000 nM | O=C(NCC1CC12CCN(C(=O)C1CC1(F)F)CC2)c1cc2ccncc2o1 (centres unmarked) [Example 58, N-[[6-(2,2-difluorocyclopropanecarbonyl)-6-azaspiro[2.5]octan-2-yl]methyl]furo(2,3-c]pyridine-2-carboxamide]

Source: patent US10730889B2, “Amido spirocyclic amide and sulfonamide derivatives” (Forma TM, LLC, priority 2012, dated 2020)
